What was measured:
Experiment in all cases: relative viability (nuclei count vs DMSO), 5 days (fraction); higher = more cells survive
[1] = compound: C1CNCCC1C2=CC(=NN2)C3=CC=NC=C3 + CC(=O)c1c(C)c2cnc(Nc3ccc(N4CCNCC4)cn3)nc2n(C2CCCC2)c1=O [Palbociclib] (partner 0.5 µM)
Summary of the method: (§1)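 Lung cancer cell lines were seeded in 1536-well plates and dosed by pin tool the next day, with either a single drug or a fixed anchor-drug dose combined with five library-drug doses (not always all listed) spaced in √10 steps. Five days later, one step fixed the cells and stained their nuclei (final 0.05% Triton X-100, 1% formaldehyde, 1 ug/ml Hoechst), and nuclei were counted on 4× images. Relative viability is the nuclei count in treated wells divided by the count in vehicle wells, and each value is the median of duplicate plates.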

[2] = compound: C1CNCCC1C2=CC(=NN2)C3=CC=NC=C3 + CC(C)C[C@H](NC(=O)[C@H](Cc1ccccc1)NC(=O)c1cnccn1)B(O)O [Bortezomib] (partner 0.002 µM)
Summary of the method: as §1

[3] = compound: C1CNCCC1C2=CC(=NN2)C3=CC=NC=C3 + Cc1nc(Nc2ncc(C(=O)Nc3c(C)cccc3Cl)s2)cc(N2CCN(CCO)CC2)n1 [Dasatinib] (partner 0.075 µM)
Summary of the method: as §1

[4] = compound: O[C@H]1CC[C@H](Nc2ncc3nc(Nc4c(F)cc(F)cc4F)n([C@H]4CCOC4)c3n2)CC1 [Tanzisertib] + N=C(N)NC(=N)NCCc1ccccc1 [Phenformin] (partner 250 µM)
Summary of the method: as §1

UMC-11
relative viability ([1]; first compound 0.08 µM): 0.317 | relative viability ([1]; first compound 0.8 µM): 0.343 | relative viability ([1]; first compound 2.53 µM): 0.325 | relative viability ([1]; first compound 8 µM): 0.333 | relative viability ([2]; first compound 0.08 µM): 0.643 | relative viability ([2]; first compound 0.8 µM): 0.919 | relative viability ([2]; first compound 2.53 µM): 0.786 | relative viability ([2]; first compound 8 µM): 0.688 | relative viability ([3]; first compound 0.08 µM): 0.498 | relative viability ([3]; first compound 0.8 µM): 0.543 | relative viability ([3]; first compound 2.53 µM): 0.488 | relative viability ([3]; first compound 8 µM): 0.521 | relative viability ([4]; first compound 0.08 µM): 0.339 | relative viability ([4]; first compound 0.253 µM): 0.35 | relative viability ([4]; first compound 0.8 µM): 0.342 | relative viability ([4]; first compound 2.53 µM): 0.351 | relative viability ([4]; first compound 8 µM): 0.37
